Reference: patent US8557800B2, “Sphingosine kinase inhibitors” (Apogee Biotechnology Corporation, priority 2005, dated 2013)
Where “and” joins values, the source holds several entries; their conditions need not be identical. Identical values can stand only once. Like-named read-outs stand apart in the source and are kept apart here.

Assays:
[1] = tested on: recombinant human SK; assay: Inhibition of recombinant human SK, LC/MS/MS assay; format: biochemical; settings: 6 μg/ml compound
Procedure, shortened: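 Enzyme incubated with unlabeled sphingosine and ATP (1 mM, as in the radiometric format) for 30 min, then stopped and extracted with acetonitrile. S1P quantified by C8 reverse-phase HPLC–MS/MS against C17 sphingosine and C17 S1P internal standards using calibration curves.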

[2] = tested on: endogenous SK in MDA-MB-231 human breast carcinoma cells; assay: Intact cell SK assay, conversion of [3H]sphingosine to [3H]S1P; format: cell-based; settings: MDA-MB-231 cells, 20 μg/ml compound
Text: The cells take up the exogenous [^3H]sphingosine and convert it to [^3H]S1P through the action of endogenous SK. The resulting [^3H]S1P is isolated via charge-based separation as indicated above. […] For potency studies, MDA-MB-231 cells were exposure to varying concentrations of a test Compound and then assayed for conversion of [^3H]sphingosine to [^3H]S1P.

[3] = tested on: MCF-10A non-transformed human breast epithelial cells; assay: Cytotoxicity, SRB binding assay; format: cell-based; settings: inhibition of cell proliferation, 48 h, read-out: MCF-10A IC50
Procedure, shortened: (§1)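 Cells exposed to varying compound doses for 48 h, then survival measured by sulforhodamine B staining. IC50 is the concentration giving 50% proliferation inhibition, in μM, as mean±sd of replicate trials.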

[4] = tested on: MCF-7 human breast adenocarcinoma cells; assay: Cytotoxicity, SRB binding assay; format: cell-based; settings: MCF7, inhibition of cell proliferation, 48 h, read-out: MCF-7 IC50
Procedure, shortened: as §1

[5] = tested on: mouse JC mammary adenocarcimona cell line growing subcutaneously in Balb/c mice; settings: for In vivo activity: JC tumor model, intraperitoneal (ip) or oral (po) administration
Protocol: The antitumor activity of the representative SK inhibitors were evaluated using a syngeneic tumor model that uses the mouse JC mammary adenocarcimona cell line growing subcutaneously in immunocompetent Balb/c mice (Lee et al., 2003, Oncol Res 14: 49).
In FIG. 1, Balb/c mice, 6-8 weeks old, were injected subcutaneously with 10^6 JC cells suspended in phosphate-buffered saline. The SK inhibitors Compounds 62 and 57 were dissolved in PEG400 and administered to mice every-other day at a dose of 100 mg/kg. Body weights and tumor volumes were monitored daily. In FIG. 1, tumor growth is expressed as the tumor volume relative to day 1 for each animal.

[6] = Oral pharmacokinetics in mice (PEG400); format: in vivo; settings: mouse, blood, 100 mg/kg oral gavage in PEG400, female Swiss-Webster mice
Protocol: Oral pharmacokinetic studies were performed on Compounds 62 and 57. Each compound was dissolved in PEG400 and administered to female Swiss-Webster mice at a dose of 100 mg/kg by oral gavage. Mice were anesthetized and blood was removed via cardiac puncture at 5 minutes, 30 minutes, 1, 2, and 8 hours. Concentrations of the test compounds were determined using liquid-liquid extraction, appropriate internal standards and reverse phase HPLC with UV detection. Control blood samples were run to identify compound-specific peaks. Pharmacokinetic parameters were calculated using the WINNONLIN analysis software package (Pharsight). Non-compartmental and compartmental models were tested, with the results shown in Table 7 derived from the best fit equations.

[7] = tested on: Hep-G2 (liver); assay: Human tumor cell line panel, sulforhodamine B; format: cell-based; settings: HepG2, 48 hours, mean ± sd
[8] = tested on: A-498 (kidney); assay: Human tumor cell line panel, sulforhodamine B; format: cell-based; settings: A498, 48 hours, mean ± sd
[9] = tested on: T24 (bladder); assay: Human tumor cell line panel, sulforhodamine B; format: cell-based; settings: 48 hours, mean ± sd
[10] = tested on: 1025LU (melanoma); assay: Human tumor cell line panel, sulforhodamine B; format: cell-based; settings: 48 hours, mean ± sd
[11] = tested on: SK-OV-3 (ovary); assay: Human tumor cell line panel, sulforhodamine B; format: cell-based; settings: 48 hours, mean ± sd
[12] = tested on: Panc-1 (pancreas); assay: Human tumor cell line panel, sulforhodamine B; format: cell-based; settings: 48 hours, mean ± sd
[13] = tested on: MDA-MB-231 (breast, ER−); assay: Human tumor cell line panel, sulforhodamine B; format: cell-based; settings: 48 hours, mean ± sd
[14] = tested on: HT-29 (colon); assay: Human tumor cell line panel, sulforhodamine B; format: cell-based; settings: 48 hours, mean ± sd
[15] = tested on: Caco-2 (colon); assay: Human tumor cell line panel, sulforhodamine B; format: cell-based; settings: 48 hours, mean ± sd
[16] = tested on: DU145 (prostate); assay: Human tumor cell line panel, sulforhodamine B; format: cell-based; settings: DU-145, 48 hours, mean ± sd
[17] = tested on: MCF-7 (breast, ER+); assay: Human tumor cell line panel, sulforhodamine B; format: cell-based; settings: MCF7, 48 hours, mean ± sd
[18] = physchem; settings: aqueous with cosolvent or surfactant or cyclodextrin
[19] = tested on: recombinant human SK; assay: Recombinant human SK assay with [3H]sphingosine; format: biochemical; settings: positive control
Protocol: An assay for identifying inhibitors of recombinant human SK has been established (French et al., 2003, Cancer Res 63: 5962). cDNA for human SK was subcloned into a pGEX bacterial expression vector, which results in expression of the enzyme as a fusion protein with glutathione-S-transferase, and the fusion protein is then purified on a column of immobilized glutathione. SK activity is measured by incubation of the recombinant SK with [^3H]sphingosine and 1 mM ATP under defined conditions, followed by extraction of the assay mixture with chloroform:methanol under basic conditions. […] Radioactivity in aliquots of the aqueous phase is then quantified as a measure of [^3H]S1P formation. There is a low background level of partitioning of [^3H]sphingosine into the aqueous phase, and addition of the recombinant SK greatly increases the formation of [^3H]S1P.

Structure (SMILES) | Recombinant SK (% inhibition) [1] [%] | Cellular S1P (% inhibition) [2] [%] | IC50 [3] [µM] | IC50 [4] [µM] | melting point [°C] | other results
O=C(NCc1ccc(O)c(O)c1)C12CC3CC(C1)CC(c1ccc(Cl)cc1)(C3)C2 [Compound 36, 3-(4-Chloro-phenyl)-adamantane-1-carboxylic acid 3,4-dihydroxy-benzylamide] | 37 | 72 | 9 | 13 | – | –
COc1ccc(CCNC(=O)C23CC4CC(C2)CC(c2ccc(Cl)cc2)(C4)C3)cc1 [Compound 41, 3-(4-Chloro-phenyl)-adamantane-1-carboxylic acid [2-(4-methoxy-phenyl)-ethyl]-amide] | 67 | 23 | 71 | 6 | – | –
CN1CCC(NC(=O)C23CC4CC(C2)CC(c2ccc(Cl)cc2)(C4)C3)CC1 [Compound 51, 3-(4-Chloro-phenyl)-adamantane-1-carboxylic acid (1-methyl-piperidin-4-yl)-amide] | 84 | – | 25 | 8 | – | In vivo activity [5]: active - ip and po
CN1CCCC1CCNC(=O)C12CC3CC(C1)CC(c1ccc(Cl)cc1)(C3)C2 (centres unmarked) [Compound 57, 3-(4-Chloro-phenyl)-adamantane-1-carboxylic acid [2-(1-methyl-pyrrolidin-2-yl)-ethyl]-amide] | 30 | – | 8 | 6 | – | Cmax [6]: 3.8 µM; Tmax [6]: 2 h; half-life [6]: 1160 min; AUC(0-inf) ([6]; read-out: AUC0→∞ (μM * h)): 111 µM·h; AUC(0-inf) ([6]; read-out: AUC0→∞ (μg * h/mL)): 45000 ng·h/mL; IC50 [7]: 5 ± 1.8 µM; IC50 [8]: 8 ± 3.5 µM; IC50 [9]: 12.7 ± 2.8 µM; inhibition of tumor growth relative to controls ([5]; 100 mg/kg oral every-other day in PEG400): 78%; In vivo activity [5]: active - po; IC50 [10]: 7.2 ± 0.8 µM; IC50 [11]: 9.2 ± 2.8 µM; IC50 [12]: 14.1 ± 6.3 µM; IC50 [13]: 12.5 ± 2.5 µM; IC50 [14]: 9.6 ± 4 µM; IC50 [15]: 3.2 ± 2 µM; IC50 [16]: 8.7 ± 3.3 µM; IC50 [17]: 12.1 ± 3.1 µM; solubility [18]: ≥ 15000 µg/mL and 30000 µM to 40000 µM
O=C(NCCc1ccncc1)C12CC3CC(CC(C3)C1)C2 [Compound 63, Adamantane-1-carboxylic acid (2-pyridin-4-yl-ethyl)-amide] | 0 | 39 | – | 11 | – | –
Oc1ccc(NCC23CC4CC(C2)CC(c2ccc(Cl)cc2)(C4)C3)cc1 [Compound 76, 4-{[3-(4-Chloro-phenyl)-adamantan-1-ylmethyl]-amino}-phenol] | 42 | – | – | 5 | 138 to 140 | –
CCn1c2ccccc2c2cc(NCC34CC5CC(C3)CC(c3ccc(Cl)cc3)(C5)C4)ccc21 [Compound 89, [3-(4-Chloro-phenyl)-adamantan-1-ylmethyl]-(9-ethyl-9H-carbazol-3-yl)-amine] | 37 | 1 | 41 | 74 | – | –
CC(NC1CCN(C)CC1)C12CC3CC(CC(c4ccc(Cl)cc4)(C3)C1)C2 (centres unmarked) [Compound 107, {1-[3-(4-Chloro-phenyl)-adamantan-1-yl]-ethyl}-(1-methyl-piperidin-4-yl)-amine] | – | – | 1 | 1 | – | In vivo activity [5]: active - ip
O=C(/C=C/c1ccc(O)cc1)C12CC3CC(C1)CC(c1ccc(Cl)cc1)(C3)C2 [Compound 132, 1-[3-(4-Chloro-phenyl)-adamantan-1-yl]-3-(4-hydroxy-phenyl)-propenone] | 8 | – | – | 17 | 87 to 89 | –
O=C(/C=C/c1ccc2ccccc2c1)C12CC3CC(C1)CC(c1ccc(Cl)cc1)(C3)C2 [Compound 133, 1-[3-(4-Chloro-phenyl)-adamantan-1-yl]-3-naphthalen-2-yl-propenone] | 36 | – | – | 13 | 82 to 84 | –
CCn1c2ccccc2c2cc(/C=C/C(=O)C34CC5CC(C3)CC(c3ccc(Cl)cc3)(C5)C4)ccc21 [Compound 136, 1-[3-(4-Chloro-phenyl)-adamantan-1-yl]-3-(9-ethyl-9H-carbazol-3-yl)-propenone] | – | – | – | 8 | 138 to 140 | –
CCCCCCCCCCCCC/C=C/[C@@H](O)[C@H](CO)N(C)C [DMS, D-erythro-N,N-dimethylsphingosine] | – | – | – | – | – | concentration that completely inhibits SK activity [19]: above 25 μM
